Columns and labels:
[1] = test system: alloxan-induced diabetic rat model; assay: Oral anti-hyperglycemic activity, blood glucose level in alloxan-induced diabetic rat model; format: in vivo, Albino male Wistar rats
Experimental: Albino male Wistar rats (150 ± 20 g) were obtained. (Supplementary Materials).
The animals were kept fasting overnight (12 h) before induction of diabetes. Diabetes was induced in rats as reported and (Supplementary Materials).
Blood samples were obtained from the tail vein of all rats, the blood glucose levels (BGLs) were measured and monitored in all treatment groups at days 0 (basal), 2, 4, 15 and 30 as reported.
Oral anti-hyperglycemic activity was evaluated for compounds 4–7 by an alloxan-induced diabetic rat model. […] The BGL was monitored for each tested compound at three different doses (50,100 and 250 mg/Kg) and for five experimental period durations (0, 2, 4, 15, 30 days). […]
The animals were kept fasting overnight (12 h) before induction of diabetes. […]

[2] = test system: alloxan-induced diabetic rat model; assay: Serum lipid profile (CH, TG, HDL, LDL, VLDL) in alloxan-induced diabetic rats; format: in vivo, Albino male Wistar rats; conditions: 50 mg/Kg; for Serum CH (cholesterol) level: all experimental times
Experimental: The blood samples (0.5 mL) were withdrawn from each rat using the retro-orbital plexus and the other steps for biochemical analysis were adapted. (Supplementary Materials).
The serious side effect related to diabetes is hyperlipidemia. The insulin deficiency promotes adipocytes to generate fatty acid, hepatic phospholipids and cholesterol. Thus, the levels of cholesterol (CH), triglyceride (TG), high (HDL), low (LDL) and very low (VLDL) density lipoproteins, in serum for alloxan-loaded diabetes have been measured at 50 mg/Kg concentration (Figure 7). All lipid parameters for all tested compounds have (p < 0.05) compared to the diabetic control group (Figure 7).
Figure 7 The level of (A) CH (Cholesterol); (B) TG (Triglyceride); (C) HDL (High density lipoprotein); (D) LDL (Low density lipoprotein) and (E) VLDL (Very low density lipoprotein) in serum of hyperglycemic loaded rats. […] Data analyzed by one way ANOVA followed by LSD test and expressed as mean ± SEM from five observations. […]
glucose level of rats was determined using glucose strips. Rats with plasma glucose concentration N 300 mg/dl (Gadadare et al., 2015) were considered diabetic and included […]
The blood samples (0.5 ml) were withdrawn from the retro-orbital plexus of each rat under mild anesthesia using a glass capillary tube after fasting for 6 h. Blood samples were centrifuged at 3000 rpm for 15 min. The serum was kept at −80 °C until analyzed. Speciﬁc reagent kits were used to determine levels of serum triglyceride (TG), serum cholesterol (CH), serum low density lipoproteins (LDL), serum high density lipoproteins (HDL) for assessing the lipid proﬁle.
Data are expressed as mean ± S.E. Data analysis was done using one way analysis of variance (ANOVA) followed by least significant difference (LSD) test for multiple comparisons. Difference was considered significant when p is less than 0.05. SPSS (version 11) program was used to carry out

[3] = Radical scavenging by DPPH method; conditions: DPPH assay
Experimental: The assay of 2,2-Diphenyl-1-picrylhydrazyl radical (DPPH) was performed according to the method at.
The antioxidant activity was examined for the hybrids (4–7) using the stable DPPH assay. The antioxidant results from different concentrations (0.16, 0.8, 4, 20, 40, 200 and 1000 µg/mL) were represented in Figure 5 as IC50 value (concentration of compound is essential for rising 50% of reducing power for H-donating or radical scavenging). The effect of the scavenging is rising in the trend 4 > 5 > 6 > STD > 7. […] After blocking the hydrazide group by aldehyde motifs in compounds 6 and 7, the activity was decreased. High scavenging activity may be due to the stabilization of the lone pair in the conjugated system by the presence of terminal ester or hydrazide.

[4] = target: α-amylase enzyme; assay: In vitro inhibition of α-amylase assay; format: biochemical; conditions: six concentrations 5-40 µg/mL, non-linear regression; read-out: IC50 against α-amylase enzyme (converted)
Chain of α-amylase enzyme (P04746 16-511): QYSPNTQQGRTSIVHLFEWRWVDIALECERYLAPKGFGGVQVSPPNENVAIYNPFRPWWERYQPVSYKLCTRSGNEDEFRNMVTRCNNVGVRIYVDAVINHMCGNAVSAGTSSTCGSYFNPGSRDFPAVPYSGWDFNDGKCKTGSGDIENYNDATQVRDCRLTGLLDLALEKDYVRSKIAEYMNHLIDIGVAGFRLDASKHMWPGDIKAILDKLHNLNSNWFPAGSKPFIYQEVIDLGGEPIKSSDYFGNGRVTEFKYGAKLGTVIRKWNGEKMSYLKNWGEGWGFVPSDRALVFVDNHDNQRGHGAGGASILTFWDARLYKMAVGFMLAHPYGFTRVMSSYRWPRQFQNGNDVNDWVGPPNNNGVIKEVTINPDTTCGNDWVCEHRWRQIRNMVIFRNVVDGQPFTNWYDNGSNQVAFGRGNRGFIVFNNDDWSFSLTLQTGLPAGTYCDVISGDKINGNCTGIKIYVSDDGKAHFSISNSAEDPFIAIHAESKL
Experimental: - inhibition in-vitro of α-Amylase assay:
The α-amylase activity of the compounds were determined using a method in which 250 μL of each compound, or Metformin .HCl, dissolved in ethanol to obtain different concentrations (5, 10, 15, 20,30 and 40 μg/mL ), was mixed with 500 μL of α-amylase (2 U/mL ) in phosphate buffer (100 mM, pH 6.8) and incubated at 37 °C for 10 min. Thereafter, 50 μL
(1 picture or pasted object on this page, not shown here) […]
of 1% starch, dissolved in the same buffer, was added to the mixture and the samples were incubated again at 37 °C. After 30 min, dinitrosalicylic acid (DNS) colour reagent (1 mL) was added. The (DNS) was prepared by adding 437mg of 3,5- dinitro salicylic acid in 20 mL distilled water to12 g of sodium potassium tartrate in 8 mL of 2 M NaOH, then added distilled water until the solution reach to 40 mL ). the samples were boiled for 10 min in water bath. For non-enzymatic reactions, the assays were performed with a blank containing all of the components except the enzyme.

Molecule: 5-(Benzo[d][1,3]dioxol-5-ylmethylene)-3-(2-(2,4-dioxo thiazolidin-3-yl) acetyl) thiazolidine-2,4-dione [Compound 6]
- Blood glucose level (BGL) compared to DC ([1]; 50 mg/Kg, 2nd and 4th days): suffered from controlling the BGL
- Blood glucose level (BGL) compared to DC ([1]; 100 mg/Kg, all of the experiments): increased the BGL rather than DC
- Serum CH (cholesterol) level reduction ([2]; 2nd and 4th days): moderate reduction
- Serum CH (cholesterol) level reduction ([2]; 15th and 30th days): best reduction of the CH level
- Serum VLDL level ([2]; 15th and 30th days): lower than normal value

Molecule: CCOC(=O)CN1C(=O)SC(=Cc2ccc3c(c2)OCO3)C1=O [Compound 4, Ethyl-2-(5-(benzo[d][1,3]dioxol-5-ylmethylene)-2,4-dioxothiazolidin-3-yl)acetate]
- Blood glucose level (BGL) compared to DC ([1]; 50 mg/Kg, 2nd, 4th and 15th days): suffered from controlling the BGL
- Blood glucose level (BGL) compared to DC ([1]; 100 mg/Kg, 15th and 30th days): significance decrease in the BGL
- Blood glucose level (BGL) compared to DC ([1]; 250 mg/Kg, all durations of the experiment): failed to control BGL
- Serum VLDL level, regulation to nearly normal value ([2]; 0th and 15th days): failed to do so
- Serum TG (triglyceride) level compared to DC ([2]; 2nd day): failed to regulate the TG level lower than the DC level
- Serum VLDL level ([2]; 2nd, 14th and 30th days): nearly normal value
- Serum CH (cholesterol) level [2]: moderate regulation of the CH value

Molecule: NNC(=O)CN1C(=O)SC(=Cc2ccc3c(c2)OCO3)C1=O [Compound 5, 2-(5-(Benzo[d][1,3]dioxol-5-ylmethylene)-2,4-dioxothiazolidin-3-yl)acetohydrazide]
- Blood glucose level (BGL) compared to DC ([1]; 100 mg/Kg, 15th and 30th days): significance decrease in the BGL
- Blood glucose level (BGL) regulation ([1]; 250 mg/Kg, 15th and 30th days): organized the BGL more than 6
- Serum CH (cholesterol) level reduction ([2]; 2nd day): moderate reduction value
- Serum CH (cholesterol) level reduction ([2]; 15th and 30th days): best reduction of the CH level
- Serum VLDL level ([2]; 15th and 30th days): lower than normal value

Molecule: COc1ccc(/C=N/NC(=O)CN2C(=O)S/C(=C/c3ccc4c(c3)OCO4)C2=O)cc1 [Compound 7]
- Blood glucose level (BGL) reduction ([1]; 50 mg/Kg, 15th and 30th days): highest percentage in the BGL reduction
- Blood glucose level (BGL) compared to DC ([1]; 100 mg/Kg, 15th and 30th days): insignificant decrease in the BGL
- Blood glucose level (BGL) compared to DC ([1]; 250 mg/Kg, 4th, 15th and 30th days): reduced BGL significantly
- Antioxidant (scavenging) activity compared to STD (ascorbic acid) [3]: lower scavenging activity than STD
- IC50 [4]: 130 µM
- Serum CH (cholesterol) level [2]: worst CH level from all compounds
